Test results taken from patent US7718801B2, “Substituted imidazole derivative” (Banyu Pharmaceutical Co., Ltd., priority 2004, dated 2010).

Assays:
[1] = target: T1, PLK1-T210D (human active type PLK1) (Homo sapiens, UniProt P53350, T210D); experiment: Measurement of the inhibitory effect against PLK1-T210D activity ([γ-33P]ATP, CDC25C-derived peptide substrate); type: biochemical; settings: 50 μM ATP, 50 μM substrate peptide, 25° C., 20 minutes
T1 construct: a baculovirus expressing full-length human PLK1 of which N terminus is fused with GST; GST (glutathione S-transferase) (N); made in house; host or cells: insect cells (baculovirus)
Description: It has been known that 210th codon of human PLK1 which originally codes for threonine can be changed to an active type by altering the site so as to code aspartic acid [Molecular and Cellular Biology (Mol. Cell. Biol.), 17th edition, 3408 (1997)]. In order to obtain a human active type PLK1 protein, cDNA of mutated PLK1 (PLK1-T210D) of which 210th codon codes aspartic acid was prepared, by substituting a base in the 210th codon of human PLK1 cDNA. This PLK1-T210D cDNA was integrated into a baculovirus expression vector in the same manner as in the above, expressed in insect cells, and then was purified.
For the measurement of the PLK1 and PLK1-T210D activity, used as a substrate was a synthetic peptide (aspartic acid-glutamic acid-leucine-methionine-glutamic acid-alanine-serine-phenylalanine-alanine-aspartic acid-glutamine-aspartic acid-alanine-lysine), where the serine surrounding sequence of the amino acid sequence No. 198 of CDC25C, which have been reported as the site for PLK1 substrate [EMBO Report, 3rd edition, 341 (2002)], is altered.
The reaction was carried out in accordance with the method of Toyoshima-Morimoto et al. [Nature, Vol. 410, 215-220, (2001)]. The volume of the reaction solution was 21.1 μL and the composition of the reaction buffer was 20 mM of tris-hydrochloric acid buffer (pH 7.4)/10 mM magnesium chloride/0.5 mM dithiothreitol/1 mM EGTA (ethylene glycol-bis(beta-aminoethylether)-N,N,N′,N′,-tetraacetic acid). Thereto, purified PLK 1, 50 μM of the substrate peptide, 50 μM of non-labeled adenosine triphosphate (ATP), and 1 μCi of [γ-33P]-labeled ATP (2000 to 4000 Ci/mmole) were added to react at 25° C. for 20 minutes. Then, 10 μL of 350 mM phosphate buffer was added to the reaction system to terminate the reaction. The resultant solution was spotted onto a multi-screen phosphocellulose filter on a 96-well plate. After the phosphocellulose filter is washed with 75 mM phosphate buffer and then dried, the radioactivity of the substrate was measured with a liquid scintillation counter. The non-labeled ATP and [γ-33P]-labeled ATP was purchased from Amersham Bioscience Corp. and the multi-screen phosphocellulose filter from Millipore Corp., respectively.
The addition of the compound of the present invention to the reaction system was carried out by adding 1.1 μL of the solution as prepared by preliminarily dissolving in dimethylsulfoxide at a 20-fold concentration of the final concentration. A control was provided by adding 1.1 μL of dimethylsulfoxide to the reaction system.

full-length human PLK1 = target: T2, full-length human PLK1 (Homo sapiens, UniProt P53350); experiment: Measurement of the inhibitory effect against PLK1 activity ([γ-33P]ATP, CDC25C-derived peptide substrate); type: biochemical; settings: 50 μM ATP, 50 μM substrate peptide, 25° C., 20 minutes
T2 construct: a baculovirus expressing full-length human PLK1 of which N terminus is fused with GST; GST (glutathione S-transferase) (N, cleaved yes); made in house; host or cells: Spodoptera frugiperda Sf9 insect cells (baculovirus)
Description: First, a baculovirus expressing full-length human PLK1 of which N terminus is fused with GST (glutathione S-transferase) was prepared, and then the PLK1 infected into a Spodoptera frugiperda (Sf)9 insect cell was highly expressed as a GST-fused protein. The cells were recovered and suspended in a lysis buffer (50 mM tris-hydrochloric acid buffer (pH 7.4)/150 mM sodium chloride/1 mM EDTA (ethylenediamine tetraacetic acid)/1 mM dithiothreitol/0.1% polyoxyethylene sorbitan monolaurate) to break cells with sonicator, and supernatant was recovered after a centrifugation. The supernatant was reacted on glutathione sepharose beads, and then the beads were washed with a lysis buffer. Thereafter, the beads were reacted in a lysis buffer containing Precision Protease to recover supernatant. […]
The reaction was carried out in accordance with the method of Toyoshima-Morimoto et al. [Nature, Vol. 410, 215-220, (2001)]. […] After the phosphocellulose filter is washed with 75 mM phosphate buffer and then dried, the radioactivity of the substrate was measured with a liquid scintillation counter. […]

HeLaS3 cells = experiment: Inhibitory activity against PLK1 at cellular level: ratio of cells arrested at M phase (phospho-histone H3 Ser10, mitotic index); type: cell-based; settings: Homo sapiens, HeLa S3; HeLaS3 cells synchronized at G1/S, 12 hours with compound; concentration inducing 50% of maximal M phase arrest; read-out: Inhibitory effect against cell proliferation
Description: For the measurement of the PLK 1 inhibitory effect of the compound at the cellular level, human uterine cervix cell lines HeLaS3 cells were used. The HeLaS3 cell was obtained from American Type Culture Collection (ATTC), and cultured in a CO2-incubator of saturated steam by using Dulbecco's Modified Eagle's Medium containing 10% fetal calf serum at 37° C. in the presence of 5% CO2.
It has been reported that PLK 1 plays an important role in various stages of mitotic phase (M-phase) in mammalian cells (Nature Review Molecular Cell Biology, Vol. 5, 429, (2004)). In fact, when the mammalian cells are treated with PLK 1 siRNA to control the expression level, the cell cycle progression is inhibited and thus the cell is arrested at M phase. Also, when examining the phosphorylation level of serine, 10th residue of histone H3, which is thought to be required for a chromosome condensation in M phase, it is observed that the level is enhanced to a high level. Thus, after treating the cell with the compound according to the present invention; the phosphorylation level of histone H3 was examined by an indirect fluorescent antibody technique, the cells arrested at M phase were identified by using the level thereof as an indicator to analyze the ratio of cells arrested at M phase; and then EC50 value of each compound was calculated to evaluate the PLK 1 inhibitory effect at a cellular level.
First, HeLaS3 cells synchronized at the G1/S phase by a double-thymidine technique were seeded into lysine-treated 96-well plate (Falcon Corp.) at the ratio of 8,000 per one well, and allowed to stand still in the above-mentioned CO2 incubator. […] After terminating the reaction, the reaction solution in wells was removed and replaced with 100 μL of PBS, and then fluorescence images were captured by using InCell Analyzer 1000 (manufactured by GE Amersham) to analyze the ratio of the cells arrested at M phase (Mitotic index) at different view angles. […]

T1 sequence (P53350 whole entry T210D, the tested form may be a part): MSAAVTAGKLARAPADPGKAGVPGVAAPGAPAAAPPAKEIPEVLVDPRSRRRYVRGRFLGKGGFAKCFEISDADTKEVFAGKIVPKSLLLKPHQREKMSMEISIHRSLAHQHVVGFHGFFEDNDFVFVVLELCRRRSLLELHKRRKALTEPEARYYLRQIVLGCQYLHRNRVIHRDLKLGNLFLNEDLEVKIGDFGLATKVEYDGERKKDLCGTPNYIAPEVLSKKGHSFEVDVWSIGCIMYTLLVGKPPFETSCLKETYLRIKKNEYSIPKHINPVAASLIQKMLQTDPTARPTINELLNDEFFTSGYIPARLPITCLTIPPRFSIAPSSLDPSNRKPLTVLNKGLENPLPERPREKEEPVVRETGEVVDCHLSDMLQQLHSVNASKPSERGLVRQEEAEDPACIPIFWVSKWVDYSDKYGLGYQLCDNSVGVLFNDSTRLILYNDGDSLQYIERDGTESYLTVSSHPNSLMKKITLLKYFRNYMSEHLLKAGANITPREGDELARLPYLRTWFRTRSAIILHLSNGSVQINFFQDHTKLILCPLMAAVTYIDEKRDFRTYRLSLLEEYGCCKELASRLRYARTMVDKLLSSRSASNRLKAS
T2 sequence (P53350 whole entry, the tested form may be a part): as the sequence (P53350 whole entry T210D, the tested form may be a part) above, with D210T counted along it

Row | Structure (SMILES) | IC50 [1] [nM] | IC50 (full-length human PLK1) [nM] | EC50 (HeLaS3 cells) [nM]
1 | C[C@H](Nc1ncc(Br)c(-c2cnc3c(Cl)cccn23)n1)c1ccccc1 [Example 28, 5-bromo-4-(8-chloroimidazo[1,2-a]pyridin-3-yl)-N-[(1S)-1-phenylethyl]-2-pyrimidinamine] | 42 | – | –
2 | C[C@H](Nc1ncc(C#N)c(-c2cnc3c(C(F)(F)F)cccn23)n1)c1ccccc1 [Example 36, 2-{[(1S)-1-phenylethyl]amino}-4-[8-(trifluoromethyl)imidazo[1,2-a]pyridin-3-yl]-5-pyrimidinecarbonitrile] | 16 | – | 310

More lines, now with the values ahead:

Row | IC50 [1] [nM] | IC50 (full-length human PLK1) [nM] | EC50 (HeLaS3 cells) [nM] | Structure (SMILES)
3 | 26 | 43 | – | Cc1cccn2c(-c3nc(N[C@@H](C)c4ccccc4)ncc3C#N)cnc12 [Example 8, 4-(8-methylimidazo[1,2-a]pyridin-3-yl)-2-{[(1S)-1-phenylethyl]amino}-5-pyrimidinecarbonitrile]
4 | 47 | – | 340 | Cc1cccn2c(-c3nc(N[C@@H](C)c4ccc(N)cc4)ncc3C#N)cnc12 [Example 112, 2-{[(1S)-1-(4-aminophenyl)ethyl]amino}-4-(8-methylimidazo[1,2-a]pyridin-3-yl)pyrimidine-5-carbonitrile]
5 | 41 | – | 180 | COc1cccn2c(-c3nc(N[C@@H](C)c4ccc(N5CCNCC5)cc4)ncc3C#N)cnc12 [Example 158, 4-(8-methoxyimidazo[1,2-a]pyridin-3-yl)-2-{[(1S)-1-(4-piperazin-1-ylphenyl)ethyl]amino}pyrimidine-5-carbonitrile]
